The values that follow come from article doi:10.1101/2025.03.04.25323177v1 (medRxiv, 2025).

The test system of the assay is Anti-PACAP antibodies (capture Lu AG20136, detection Lu AG20141). The experiment in a line: Reactivity in PACAP MSD S-PLEX sandwich immunoassay. The format is binding. As to conditions: sandwich ECL immunoassay.

No end group written: not given here.

In the case of “vasoactive intestinal peptide (HSDAVFTDNYTRLRKQMAVKKYLNSILN; ends and bridges not checked; UniProt P01282 125-152, looked up) [VIP]”, the “Reactivity in PACAP MSD S-PLEX assay” value is “No reactivity”.

B1: ceruloplasmin: protein tested for interaction in the PACAP assay (protein, UniProt P00450 20-1065, looked up)
Ceruloplasmin: KEKHYYIGIIETTWDYASDHGEKKLISVDTEHSNIYLQNGPDRIGRLYKKALYLQYTDETFRTTIEKPVWLGFLGPIIKAETGDKVYVHLKNLASRPYTFHSHGITYYKEHEGAIYPDNTTDFQRADDKVYPGEQYTYMLLATEEQSPGEGDGNCVTRIYHSHIDAPKDIASGLIGPLIICKKDSLDKEKEKHIDREFVVMFSVVDENFSWYLEDNIKTYCSEPEKVDKDNEDFQESNRMYSVNGYTFGSLPGLSMCAEDRVKWYLFGMGNEVDVHAAFFHGQALTNKNYRIDTINLFPATLFDAYMVAQNPGEWMLSCQNLNHLKAGLQAFFQVQECNKSSSKDNIRGKHVRHYYIAAEEIIWNYAPSGIDIFTKENLTAPGSDSAVFFEQGTTRIGGSYKKLVYREYTDASFTNRKERGPEEEHLGILGPVIWAEVGDTIRVTFHNKGAYPLSIEPIGVRFNKNNEGTYYSPNYNPQSRSVPPSASHVAPTETFTYEWTVPKEVGPTNADPVCLAKMYYSAVEPTKDIFTGLIGPMKICKKGSLHANGRQKDVDKEFYLFPTVFDENESLLLEDNIRMFTTAPDQVDKEDEDFQESNKMHSMNGFMYGNQPGLTMCKGDSVVWYLFSAGNEADVHGIYFSGNTYLWRGERRDTANLFPQTSLTLHMWPDTEGTFNVECLTTDHYTGGMKQKYTVNQCRRQSEDSTFYLGERTYYIAAVEVEWDYSPQREWEKELHHLQEQNVSNAFLDKGEFYIGSKYKKVVYRQYTDSTFRVPVERKAEEEHLGILGPQLHADVGDKVKIIFKNMATRPYSIHAHGVQTESSTVTPTLPGETLTYVWKIPERSGAGTEDSACIPWAYYSTVDQVKDLYSGLIGPLIVCRRPYLKVFNPRRKLEFALLFLVFDENESWYLDDNIKTYSDHPEKVNKDDEEFIESNKMHAINGRMFGNLQGLTMHVGDEVNWYLMGMGNEIDLHTVHFHGHSFQYKHRGVYSSDVFDIFPGTYQTLEMFPRTPGIWLLHCHVTDHIHAGMETTYTVLQNEDTKSG
Consider B1, for which the “Reactivity in PACAP MSD S-PLEX assay” value is reported as “no interaction”.
